# Reference: US20250171438A1 (Agios Pharmaceuticals, Inc., priority 2022, published 2025)
# Molecular target: T1, human PAH with the R408W mutation (Homo sapiens, UniProt P00439, R408W)
# T1 construct: expressed in transfected cells
# T1 sequence (P00439 1-452 R408W): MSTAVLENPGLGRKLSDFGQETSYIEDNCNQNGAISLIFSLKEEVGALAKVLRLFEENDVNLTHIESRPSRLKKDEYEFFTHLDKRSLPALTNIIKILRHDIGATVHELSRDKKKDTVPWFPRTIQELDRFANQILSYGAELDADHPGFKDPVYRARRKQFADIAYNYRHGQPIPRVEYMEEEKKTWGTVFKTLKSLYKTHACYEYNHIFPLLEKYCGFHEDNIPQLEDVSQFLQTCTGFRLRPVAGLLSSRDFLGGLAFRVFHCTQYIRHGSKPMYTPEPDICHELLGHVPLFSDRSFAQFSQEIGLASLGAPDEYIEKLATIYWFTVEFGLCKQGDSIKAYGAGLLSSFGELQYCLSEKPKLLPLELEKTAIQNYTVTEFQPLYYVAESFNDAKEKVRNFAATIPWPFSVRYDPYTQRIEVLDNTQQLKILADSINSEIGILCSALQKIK
# Assay: Cell Based Phenylalanine Flux Assay
# Details: A375 cells expressing human R408W PAH; 24 hrs compound incubation; 13C-Tyrosine by LC-MS; average where tested multiple times; read-out: AC50
row,AC50,Compound
1,500 to 1000 nM,"O=C(c1nccs1)N1CCc2[nH]cnc2[C@H]1c1nc2ccccc2[nH]1 [Example 903, (S)-(4-(1H-benzo[d]imidazol-2-yl)-6,7-dihydro-1H-imidazo[4,5-c]pyridin-5(4H)-yl)(thiazol-2-yl)methanone]"
2,< 500 nM,"CN1CCN(c2nc(C(F)(F)F)c(C(=O)N3CCc4[nH]cnc4[C@@H]3c3nc4ccccc4s3)o2)CC1 [Example 1574, (R)-(4-(benzo[d]thiazol-2-yl)-6,7-dihydro-1H-imidazo[4,5-c]pyridin-5(4H)-yl)(2-(4-methylpiperazin-1-yl)-4-(trifluoromethyl)oxazol-5-yl)methanone]"
3,< 500 nM,O=C(c1cnn2c(Br)cccc12)N1CCc2[nH]cnc2[C@H]1c1nc2ccc(F)cc2s1 [Example 1149]
4,1000 to 5000 nM,"C=Cc1ccc2c(C(=O)N3CCc4[nH]cnc4[C@@H]3c3nc4ccccc4s3)cnn2c1 [Example 1232, (R)-(4-(benzo[d]thiazol-2-yl)-6,7-dihydro-1H-imidazo[4,5-c]pyridin-5(4H)-yl)(6-vinylpyrazolo[1,5-a]pyridin-3-yl)methanone]"
5,500 to 1000 nM,"O=C(c1ocnc1C(F)(F)F)N1CCCc2[nH]cnc2[C@H]1c1nc2ccccc2s1 [Example 2131, (S)-(4-(benzo[d]thiazol-2-yl)-7,8-dihydroimidazo[4,5-c]azepin-5(1H,4H,6H)-yl)(4-(trifluoromethyl)oxazol-5-yl)methanone]"
6,> 5000 nM,"O=C(c1nccs1)N1CCc2[nH]cnc2[C@@H]1c1nc2ccccc2[nH]1 [Example 902, (R)-(4-(1H-benzo[d]imidazol-2-yl)-6,7-dihydro-1H-imidazo[4,5-c]pyridin-5(4H)-yl)(thiazol-2-yl)methanone]"
7,< 500 nM,"O=C(c1oc(-c2ccccn2)nc1C(F)F)N1CCc2[nH]cnc2[C@H]1c1nc2c(F)cccc2s1 [Example 1798, (S)-(4-(difluoromethyl)-2-(pyridin-2-yl)oxazol-5-yl)(4-(4-fluorobenzo[d]thiazol-2-yl)-6,7-dihydro-1H-imidazo[4,5-c]pyridin-5(4H)-yl)methanone]"
8,< 500 nM,CC(C)(O)c1nc(C(F)F)c(C(=O)N2CCc3[nH]cnc3[C@H]2c2nc3ccccc3s2)o1 [Example 1809]
9,1000 to 5000 nM,"CC(C)(F)c1nnc(C(=O)N2CCc3[nH]cnc3[C@@H]2c2nc3ccccc3s2)o1 [Example 1833, (R)-(4-(benzo[d]thiazol-2-yl)-6,7-dihydro-1H-imidazo[4,5-c]pyridin-5(4H)-yl)(5-(2-fluoropropan-2-yl)-1,3,4-oxadiazol-2-yl)methanone]"
10,1000 to 5000 nM,"CC(F)(F)c1ncc(C(=O)N2CCc3[nH]cnc3[C@@H]2c2nc3ccccc3s2)s1 [Example 1512, (R)-(4-(benzo[d]thiazol-2-yl)-6,7-dihydro-1H-imidazo[4,5-c]pyridin-5(4H)-yl)(2-(1,1-difluoroethyl)thiazol-5-yl)methanone]"
11,500 to 1000 nM,"O=C(c1nnc(-c2ccc(F)cc2F)o1)N1CCc2[nH]cnc2[C@@H]1c1nc2ccccc2s1 [Example 1812, (R)-(4-(benzo[d]thiazol-2-yl)-6,7-dihydro-1H-imidazo[4,5-c]pyridin-5(4H)-yl)(5-(2,4-difluorophenyl)-1,3,4-oxadiazol-2-yl)methanone]"
12,< 500 nM,Cn1nc(Cl)nc1C(=O)N1CCc2[nH]cnc2[C@H]1c1nc2c(F)cccc2s1 [Example 1955]
13,< 500 nM,"N#Cc1ccn2ncc(C(=O)N3CCc4[nH]cnc4[C@H]3c3nc4ccccc4s3)c2c1 [Example 1085, (S)-3-(4-(benzo[d]thiazol-2-yl)-4,5,6,7-tetrahydro-1H-imidazo[4,5-c]pyridine-5-carbonyl)pyrazolo[1,5-a]pyridine-5-carbonitrile]"
14,1000 to 5000 nM,"O=C(c1cnn2ccc(Br)cc12)N1CCc2[nH]cnc2[C@@H]1c1nc2cc(F)ccc2s1 [Example 1282, (R)-(5-bromopyrazolo [1,5-a]pyridin-3-yl)(4-(5-fluorobenzo[d]thiazol-2-yl)-6,7-dihydro-1H-imidazo[4,5-c]pyridin-5(4H)-yl)methanone]"
15,1000 to 5000 nM,"CC(C)(O)c1c(Br)ccc2c(C(=O)N3CCc4[nH]cnc4[C@@H]3c3nc4ccccc4s3)cnn12 [Example 1476, (R)-(4-(benzo[d]thiazol-2-yl)-6,7-dihydro-1H-imidazo[4,5-c]pyridin-5(4H)-yl)(6-bromo-7-(2-hydroxypropan-2-yl)pyrazolo[1,5-a]pyridin-3-yl)methanone]"
16,500 to 1000 nM,CN(C)Cc1ccc2c(C(=O)N3CCc4[nH]cnc4[C@H]3c3nc4ccccc4s3)cnn2c1 [Example 1311]
17,1000 to 5000 nM,"Cn1nc(C(=O)N2CCc3[nH]cnc3[C@@H]2c2nc3ccccc3s2)c2ccccc21 [Example 1526, (R)-(4-(benzo[d]thiazol-2-yl)-6,7-dihydro-1H-imidazo[4,5-c]pyridin-5(4H)-yl)(1-methyl-1H-indazol-3-yl)methanone]"
18,1000 to 5000 nM,"CN(C)CCc1ccc2c(C(=O)N3CCc4[nH]cnc4[C@@H]3c3nc4c(F)cccc4s3)cnn2c1 [Example 1600, (R)-(6-(2-(dimethylamino)ethyl)pyrazolo[1,5-a]pyridin-3-yl)(4-(4-fluorobenzo[d]thiazol-2-yl)-6,7-dihydro-1H-imidazo[4,5-c]pyridin-5(4H)-yl)methanone]"
19,< 500 nM,"O=C(CC1CC1)N1CCc2[nH]cnc2[C@H]1c1nc2cccc(F)c2s1 [Example 1257, (S)-2-cyclopropyl-1-(4-(7-fluorobenzo[d]thiazol-2-yl)-6,7-dihydro-1H-imidazo[4,5-c]pyridin-5(4H)-yl)ethanone]"
20,1000 to 5000 nM,"O=C(c1cnc(N2CCCC2)s1)N1CCc2[nH]cnc2[C@@H]1c1nc2ccccc2s1 [Example 1324, (R)-(4-(benzo[d]thiazol-2-yl)-6,7-dihydro-1H-imidazo[4,5-c]pyridin-5(4H)-yl)(2-(pyrrolidin-1-yl)thiazol-5-yl)methanone]"
21,> 5000 nM,"CC(C)(O)c1nnc(C(=O)N2CC3(CC3)c3[nH]cnc3[C@@H]2c2nc3ccccc3s2)o1 [Example 1695, (R)-(4′-(benzo[d]thiazol-2-yl)spiro[cyclopropane-1,7′-imidazo[4,5-c]pyridin]-5′(1′H,4′H,6′H)-yl)(5-(2-hydroxypropan-2-yl)-1,3,4-oxadiazol-2-yl)methanone]"
22,1000 to 5000 nM,"Cn1cc(-c2ncc(C(=O)N3CCc4[nH]cnc4[C@@H]3c3nc4ccccc4s3)s2)c(C2CC2)n1 [Example 1386, (R)-(4-(benzo[d]thiazol-2-yl)-6,7-dihydro-1H-imidazo[4,5-c]pyridin-5(4H)-yl)(2-(3-cyclopropyl-1-methyl-1H-pyrazol-4-yl)thiazol-5-yl)methanone]"
23,1000 to 5000 nM,"CC(C)(O)c1cccc2c(C(=O)N3CCc4[nH]cnc4[C@@H]3c3nc4ccccc4s3)cnn12 [Example 1482, (R)-(4-(benzo[d]thiazol-2-yl)-6,7-dihydro-1H-imidazo[4,5-c]pyridin-5(4H)-yl)(7-(2-hydroxypropan-2-yl)pyrazolo[1,5-a]pyridin-3-yl)methanone]"
24,> 5000 nM,"Cc1nc(CCCN2CCOCC2)oc1C(=O)N1CCc2[nH]cnc2[C@@H]1c1nc2ccccc2s1 [Example 1702, (R)-(4-(benzo[d]thiazol-2-yl)-6,7-dihydro-1H-imidazo[4,5-c]pyridin-5(4H)-yl)(4-methyl-2-(3-morpholinopropyl)oxazol-5-yl)methanone]"
25,1000 to 5000 nM,O=C(C1CC1)N1CCc2[nH]cnc2[C@H]1c1nc2ccccc2s1 [Example 1073]
26,1000 to 5000 nM,"Cn1nc(C(C)(C)C#N)nc1C(=O)N1CCc2[nH]cnc2[C@@H]1c1nc2c(F)cccc2s1 [Example 2048, (R)-2-(5-(4-(4-fluorobenzo[d]thiazol-2-yl)-4,5,6,7-tetrahydro-1H-imidazo[4,5-c]pyridine-5-carbonyl)-1-methyl-1H-1,2,4-triazol-3-yl)-2-methylpropanenitrile]"

# Same assay, conditions: A375 cells expressing human R408W PAH; 24 hrs with compound; 13C-Tyrosine by LC-MS; average where tested multiple times; read-out: AC50
row,AC50,Compound
1,1000 to 5000 nM,O=C(C1CC1)N1CCc2[nH]cnc2C1c1nc2ccc(Br)cc2s1 (stereo not shown)
2,1000 to 5000 nM,O=C(c1ccn[nH]1)N1CCc2[nH]cnc2C1c1nc2c(F)cccc2s1 (stereo not shown)
3,1000 to 5000 nM,O=C(c1nncs1)N1CCc2[nH]cnc2C1c1nc2ccc(F)cc2s1 (stereo not shown)
4,> 5000 nM,O=C(c1nnc(CCCN2CCOCC2)o1)N1CCc2[nH]cnc2C1c1nc2ccccc2s1 (stereo not shown)
5,> 5000 nM,Cc1nnc(CC(=O)N2CCc3[nH]cnc3C2c2nc3ccccc3s2)s1 (stereo not shown)
6,1000 to 5000 nM,CC1CN(C(=O)c2cnc(N3CCOCC3)o2)C(c2nc3ccccc3s2)c2nc[nH]c21 (stereo not shown)
7,1000 to 5000 nM,COc1ccn2ncc(C(=O)N3CCc4[nH]cnc4C3c3nc4ccc(F)cc4s3)c2c1 (stereo not shown)
8,1000 to 5000 nM,O=C(CCc1ccc(F)cc1)N1CCc2[nH]cnc2C1c1nc2ccccc2[nH]1 (stereo not shown)
9,1000 to 5000 nM,O=C(c1cnn2c(Br)cccc12)N1CCc2[nH]cnc2C1c1nc2ccc(Cl)cc2[nH]1 (stereo not shown)
10,1000 to 5000 nM,Cn1nc(C#N)cc1C(=O)N1CCc2[nH]cnc2C1c1nc2c(F)cccc2s1 (stereo not shown)
11,> 5000 nM,O=C(Cc1cncs1)N1CCc2[nH]cnc2C1c1nc2ccccc2s1 (stereo not shown)
12,> 5000 nM,CC(C)(O)Cn1ncc(C(=O)N2CCc3[nH]cnc3C2c2nc3c(F)cccc3s2)c1C(F)F (stereo not shown)
13,1000 to 5000 nM,O=C(c1cnn2c(Br)cccc12)N1CCc2[nH]cnc2C1c1nc2ccccc2[nH]1 (stereo not shown)
14,1000 to 5000 nM,Cc1ccc2c(C(=O)N3CCc4[nH]cnc4C3c3nc4ccc(Cl)cc4[nH]3)cnn2c1 (stereo not shown)
15,> 5000 nM,O=C(c1ncc[nH]1)N1CCc2[nH]cnc2C1c1nc2ccccc2[nH]1 (stereo not shown)
16,1000 to 5000 nM,O=C(Cc1cnco1)N1CCc2[nH]cnc2C1c1nc2ccccc2s1 (stereo not shown)
17,1000 to 5000 nM,Cc1nnc(C(=O)N2CCc3[nH]cnc3C2c2nc3ccccc3[nH]2)o1 (stereo not shown)
